These results are taken from patent publication US8119614B2, “Substitution derivatives of N6-benzyladenosine, methods of their preparation, their use for preparation of drugs, cosmetic preparations and growth regulators, pharmaceutical preparations, cosmetic preparations and growth regulators containing these compounds” (Ustav Experimentalni Botaniky Akademie Ved Ceske Republiky, priority 2002, dated 2012).

Some results are limits rather than exact numbers.

The subject of one test is Human lymphocytes. Nature of the test: Immunosuppressive activity: concanavalin A induced lymphocyte proliferation, [^3H]-TdR incorporation. The test is classed as cell-based. The settings on record: 72 hours, read-out: Human lymphocytes ED50. On the procedure: Human heparinized peripheral blood was obtained from healthy volunteers by cubital vein punction. The blood was diluted in PBS (1:3) and mononuclear cells were separated by centrifugation in Ficoll-Hypaque density gradient (Pharmacia, 1.077 g/ml) at 2200 rpm for 30 minutes. Following centrifugation, lymphocytes were washed in PBS and resuspended in cell culture medium (RMPI 1640, 2 mM glutamine, 100 U/ml penicillin, 100 μg/ml streptomycin, 10% fetal calf serum and sodium bicarbonate).
The cells were diluted at target density of 1,100,000 cells/ml were added by pipette (180 μl) into 96/well microtiter plates. Four-fold dilutions of the intended test concentration were added at time zero in 20 μl aliquots to the microtiter plate wells. Usually, test compound was evaluated at six 4-fold dilutions. In routine testing, the highest well concentration was 266.7 μM. All drug concentrations were examined in duplicates. All wells with exception of unstimulated controls were activated with 50 μl of concanavalin A (25 μg/ml). Incubations of cells with test compounds lasted for 72 hours at 37° C., in 5% CO2 atmosphere and 100% humidity. At the end of incubation period, the cells were assayed by using the [^3H]-TdR:
Cell cultures were incubated with 0.5 μCi (20 μl of stock solution 500 μCi/ml) per well for 6 hours at 37° C. and 5% CO2. The automated cell harvester was used to lyse cells in water and adsorb the DNA onto glass-fiber filters in the format of microtiter plate. The DNA incorporated [^3H]-TdR was retained on the filter while unincorporated material passes through. The filters were dried at room temperature overnight, sealed into a sample bag with 10-12 ml of scintillant. The amount of [^3H]-TdR present in each filter (in cpm) was determined by scintillation counting in a Betaplate liquid scintillation counter. The effective dose of immunosuppressant (ED) was calculated using the following equation: ED=(CCPMdrug exposed well/mean CCPMcontrol wells)×100%. The ED50 value, the drug concentration inhibiting proliferation of 50% of lymphocytes, was calculated from the obtained dose response curves.

The subject of test [1] is Amaranthus caudatus cotyledon/hypocotyl explants. Nature of the test: Amaranthus bioassay (betacyanin content). In kind it is in vivo. The method in brief:
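Surface-sterilised Amaranthus caudatus var. atropurpurea seeds were germinated 72 h at 25° C. in darkness, then de-rooted. Cotyledon/hypocotyl explants (20 per dish) were incubated under green safe light on filter paper with 1 ml medium of 10 μmol NA2HPO4-KH2PO4, pH 6.8, 5 μmol tyrosine and cytokinin (10^-8M to 10^-4M) for 48 h at 25° C. in darkness. Betacyanin was extracted in […] acetic acid and measured by absorbance at 537 nm and 620 nm.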

The test system of another test is glutamate kinase. Nature of the test: Field studies: glutamate kinase activity in spring wheat. The conditions noted are these: 6 days after the application, Control = 100.0. Also noted: tested at 1 µM (10^-6 M spray solution). In kind it is in vivo. On the procedure: (§1) Height of plants, leaf area, dry matter, development of vegetation opex—bases of future spike, and number of spikelets were monitored after germination in 14 day intervals, […]. From these primary data, values used in production physiology are derived, as leaf area index LAI, photosynthetic capacity LAD, tillering potential. Experiments with treatment of spring wheat crop (variety Sandra) are carried out on the field (area 10 m^2, four replicates) by spraying 1 litr of 10^−6 molar solution of tested compound (cytokinin) at the transition period from jointing stage to athesis stage (49 DC).
Glutamate kinase activity was determined 6 days after the application. This enzyme was selected because of good corelation of its activity changes and state of transport of endogenous substances (nutrients from roots, assimilates to cariopsis), respiration, energy (adenosintriphosphate) transfer, storage of nutrients, growth and developmental proceses, and also metabolism of proline, which is known from literature to play an important role in adaptation against stress (unsuitable stand, drought, hypersalinity, coldness) and also in regulation of both theoretical and real production (restriction of seed number reduction per spikelet). Enzyme glutamate kinase catalyses to glutamate conversion into γ glutamylphosphate, which is first step of proline biosynthesis from glutamate. Therefore, this enzyme is, as essential precursor of other plant metabolic pathways, marker of stress inhibition. It can be determined spectrofotometrically (Vasáková, 1980). For analysis, acetone powder is prepared from a sample by standard method, subsequently extracted by 0.05M potassium-phosphate buffer pH=7.2 and centrifugated. Glutamate kinase fraction is precipitated using crystalline ammonium sulfate and after dialysis, glutamate kinase activity is determined spectrophotometrically. Proline accumulation increased by stress corresponds as a “feedback” to glutamate kinase inhibition.

The subject of test [2] is spring wheat (variety Sandra). In words: Field studies: yield analysis of spring wheat crop. The settings on record: spray of 10^−6 molar solution, Control = 100.0. The test is classed as in vivo. On the procedure: Crops (over the 4-year period) of spring wheat were sown in the experimental fields of Czech Agriculture University (CZU) (region of sugar beet production type) at a seeding rate of 400 germinative grains·m^−2 into ploughed and shoddy soil containing 116.1 mg/kg P, 228.3 mg/kg K, and 211.8 mg/kg Mg (agrochemical analyses were done at Department of Pedology CZU) (interval between ploughing and sowing is usually 3-4 days, longer only in case of adverse weather conditions). Preceding crop was rape. Soil preparation was done by the classical way using skid and harrow and after seeding is rolled.
as §1
Yield analysis, evaluating spike lenght and seed number per spikelet (Σ Z/K) were carried out for 30 plant per each variant, yield from 1 m^2 and 1000 grain weight (HTS) was determined from 8 replicates, yield per ha was subsequently calculated.

Test [3] deals with human malignant melanoma cells G361. Nature of the test: In vitro cytotoxic activity, Calcein AM assay, G-361. In kind it is cell-based. The settings on record: 72 hours, read-out: IC 50 G-361. From the text:
One of the parameters used, as the basis for cytotoxicity assays, is the metabolic activity of viable cells. For example, a microtiter assay, which uses the Calcein AM, is now widely used to quantitate cell proliferation and cytotoxicity. For instance, this assay is used in drug screening programs and in chemosensitivity testing. Because only metabolically active cells cleave Calcein AM, these assays detect viable cells exclusively. The quantity of reduced Calcein AM corresponds to the number of vital cells in the culture.
Human T-lymphoblastic leukemia cell line CEM; promyelocytic HL-60 and monocytic U937 leukemias; breast carcinoma cell lines MCF-7; cervical carcinoma cells HELA; mouse fibroblasts NIH3T3; human erythroleukaemia K562 and human malignant melanoma cells G361 were used for routine screening of compounds. The cells were maintained in Nunc/Corning 80 cm^2 plastic tissue culture flasks and cultured in cell culture medium (DMEM with 5 g/l glucose, 2 mM glutamine, 100 U/ml penicillin, 100 μg/ml streptomycin, 10% fetal calf serum and sodium bicarbonate).
The cell suspensions that were prepared and diluted according to the particular cell type and the expected target cell density (10^4 cells per well based on cell growth characteristics) were added by pipette (80 μl) into 96/well microtiter plates. Inoculates were allowed a pre-incubation period of 24 hours at 37° C. and 5% CO2 for stabilisation. Four-fold dilutions of the intended test concentration were added at time zero in 20 μl aliquots to the microtiter plate wells. Usually, test compound was evaluated at six 4-fold dilutions. In routine testing, the highest well concentration was 166.7 μM, but it can be the matter of change dependent on the agent. All drug concentrations were examined in duplicates. Incubations of cells with the test compounds lasted for 72 hours at 37° C., in 5% CO2 atmosphere and 100% humidity. At the end of incubation period, the cells were assayed by using the Calcein AM. Ten microliters of the stock solution were pipetted into each well and incubated further for 1 hours. Fluorescence (FD) was measured with the Labsystem FIA Reader Fluoroscan Ascent (UK). The tumour cell survival (GI50) was calculated using the following equitation: GI50=(FDdrug exposed well/mean FDcontrol wells)×100%. The GI50 value, the drug concentration lethal to 50% of the tumour cells, was calculated from the obtained dose response curves (FIG. 3).

The subject of the next test is mouse fibroblasts NIH3T3. In words: In vitro cytotoxic activity, Calcein AM assay, NIH-3T3. In kind it is cell-based. The conditions noted are these: 72 hours, read-out: IC 50 NIH-3T3. Summed up: (§2)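 Cells seeded at 10^4 per well, pre-incubated 24 h at 37 °C/5% CO2, then exposed 72 h to six 4-fold dilutions of compound (top well concentration usually 166.7 μM) in duplicate. Viability read by Calcein AM fluorescence after 1 h; GI50 taken from dose-response curves.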

For test [4], the system named is breast carcinoma cell lines MCF-7. Nature of the test: In vitro cytotoxic activity, Calcein AM assay, MCF7. The test is classed as cell-based, human. The settings on record: 72 hours, read-out: IC 50 MCF7. The method in brief: as §2
In another test the test system is HOS. Nature of the test: In vitro cytotoxic activity, Calcein AM assay, HOS. In kind it is cell-based. The conditions noted are these: 72 hours.
The test system of test [5] is human erythroleukaemia K562. Nature of the test: In vitro cytotoxic activity, Calcein AM assay, K-562. In kind it is cell-based. The settings on record: 72 hours, read-out: IC 50 K-562. The method in brief:
as §2

Another test relates to promyelocytic HL-60. In words: In vitro cytotoxic activity, Calcein AM assay, HL60. In kind it is cell-based, human. The conditions noted are these: 72 hours, read-out: IC 50 HL60. The method in brief: as §2
The subject of test [6] is Human T-lymphoblastic leukemia cell line CEM. In words: In vitro cytotoxic activity, Calcein AM assay, CEM. In kind it is cell-based. The settings on record: 72 hours. Summed up:
as §2

A further test has as its system Rosa hybrida ‘Pailin’. Nature of the test: Early shoot senescence inhibition of tissue cultured roses. In kind it is in vivo. The conditions noted are these: 10 μM in medium. As for the experimental part:
Rosa hybrida ‘Pailin’ (a cut rose) was cultured in 350 ml vessels with a screw on polycarbonate lid. Each culture vessel contained 100 ml autoclaved medium (120° C., 20 min). The cultures were maintained at 23±2° C. under a 16 h photoperiod at […] m^−2 s^−1 PAR. The basal medium (MBR) contained Murashige and Skoog (1962) macroelements, microelements and vitamins, 36.7 mg/l NaFeEDTA, 50 mg/l NaFeEDDHA, […], 30 g/l sucrose, 100 mg/l glycine, 50 mg/l calcium pantothenate, 100 mg/l L-glutamine and 7 g/l agar-agar. This medium was supplemented with 10 μM of the tested cytokinin. New cytokinins were filter sterilised and added after autoclaving the medium in the vessels. 6-Benzylaminopurine (BAP) was used as a standard compound; the control medium didn't contain any cytokinin. After a culture period of 6 weeks, scoring senescence symptoms was started.

As for `OC[C@H]1O[C@@H](n2cnc3c(NCc4ccc(O)c(O)c4)ncnc32)[C@H](O)[C@@H]1O` [3,4-dihydroxybenzylamino, 6-(3,4-dihydroxybenzylamino)purine riboside], the EC50 in the test with Human lymphocytes worked out at 8.3 µM. Also, the “Concentration with highest activity” value in [1] (48 h dark) was 10^−4 mol · l^−1. Further, the “Activity (%) [10^−5 mol · l^−1 BAP = 100%]” value in [1] (at concentration with highest activity) amounted to 8 ± 3%.

For the compound `OC[C@H]1O[C@@H](n2cnc3c(NCc4ccccc4)ncnc32)[C@H](O)[C@@H]1O` [BAPR, 6-benzylaminopurine riboside, reference compound], the “GK % (glutamate kinase activity)” value in the test on glutamate kinase was 154.1%. Moreover, in test [2], the “HTS (%) (1000 grain weight)” value was found to be 103.8%, the “Yield(%)” value is given as 121.9%, the “Σ Z/K (%) (seed number per spikelet)” value stood at 114.3% and the “Σ spike/m^2 (%)” value is reported as 102.7%.

With `OC[C@H]1O[C@@H](n2cnc3c(NCc4cccc(Cl)c4O)ncnc32)[C@H](O)[C@@H]1O` [2-hydroxy-3-chlorobenzylamino, 6-(2-hydroxy-3-chlorobenzylamino)purine riboside], the IC50 was 128 µM in test [3]; > 167 µM in the test with mouse fibroblasts NIH3T3; 15 µM in test [4]; > 167 µM in the test on HOS; 10.7 µM in test [5]; 100 nM in the test on promyelocytic HL-60. The IC50 in [6] was 300 nM. Moreover, in the test on Human lymphocytes, the EC50 was 2.1 µM.

Turning to `OC[C@H]1O[C@@H](n2cnc3c(NCc4cccc(O)c4)ncnc32)[C@H](O)[C@@H]1O` [3-hydroxybenzylamino, 6-(3-hydroxybenzylamino)purine riboside], the IC50 in test [3] is > 167 µM; with mouse fibroblasts NIH3T3 it was > 167 µM; in test [4] it was > 167 µM; in the test on HOS, > 167 µM; in test [5] it was > 167 µM; in the test with promyelocytic HL-60, 23700 nM. Also, the IC50 in test [6] was 51900 nM. Also, the EC50 with Human lymphocytes worked out at 10.7 µM.

As for `COc1ccc(CNc2ncnc3c2ncn3[C@@H]2O[C@H](CO)[C@@H](O)[C@H]2O)c(O)c1` [2-hydroxy-4-methoxybenzylamino, 6-(2-hydroxy-4-methoxybenzylamino)purine riboside], the EC50 in the test on Human lymphocytes was 1.5 µM.

As to `Oc1cccc(CNc2ncnc3nc[nH]c23)c1` [mT, 6-(3-hydroxybenzylamino)purine], in the test with Rosa hybrida ‘Pailin’, the “senescence / dying of rose explants (in words)” value is on record as “the situation improved”.

Turning to `OC[C@H]1O[C@@H](n2cnc3c(NCc4ccccc4O)ncnc32)[C@H](O)[C@@H]1O` [2-hydroxybenzylamino, 6-(2-hydroxybenzylamino)purine riboside], the IC50 in [3] was > 167 µM; in the test with mouse fibroblasts NIH3T3 it was 43.2 µM; in test [4], 11.4 µM; in the test on HOS, 2.8 µM; in [5] it was 88 µM; with promyelocytic HL-60, 420 nM. For the same compound, the IC50 in test [6] is 700 nM. In addition, in the test on Human lymphocytes, the EC50 was 4.8 µM.
